The record followed here is ChEMBL document CHEMBL1129834, “A boronated benzamide as melanoma-seeking agent” (Bioorg Med Chem Lett, 1997).

Data set [1] in a line: Compound was evaluated for the biodistribution of tumor-imaging agent in B16 melanoma bearing mice muscle upon intraveneous administration at 2.6 gmol/mice after 3 hour. The format is ADME, organism-based, Muscle tissue. The conditions noted are these: mus sp., in vivo, iv.
Data set [2] in a line: Compound was evaluated for the biodistribution of tumor-imaging agent in B16 melanoma bearing mice spleen upon intraveneous administration at 2.6 gmol/mice after 1 hour. The conditions noted are these: mus sp., in vivo, iv. The format is ADME, organism-based.
Data set [3] is described as follows: Compound was evaluated for the biodistribution of tumor-imaging agent in B16 melanoma bearing mice upon intraveneous administration at 2.6 gmol/mice after 1 hour. The format is ADME, organism-based. The conditions noted are these: mus sp., in vivo, iv.
Data set [4] is described as follows: Compound was evaluated for the biodistribution of tumor-imaging agent in B16 melanoma bearing mice upon intraveneous administration at 2.6 gmol/mice after 24 hour. The format is ADME, organism-based. The settings on record: mus sp., in vivo, iv.
The nature of data set [5]: Compound was evaluated for the biodistribution of tumor-imaging agent in B16 melanoma bearing mice blood upon intraveneous administration at 2.6 gmol/mice after 1 hour. The format is ADME, organism-based. The settings on record: mus sp., in vivo, iv.
A short description of data set [6]: Compound was evaluated for the biodistribution of tumor-imaging agent in B16 melanoma bearing mice blood upon intraveneous administration at 2.6 gmol/mice after 3 hour. The format is ADME, organism-based. The settings on record: mus sp., in vivo, iv.
A short description of data set [7]: Compound was evaluated for the biodistribution of tumor-imaging agent in B16 melanoma bearing mice brain upon intraveneous administration at 2.6 gmol/mice after 1 hour. The conditions noted are these: mus sp., in vivo, iv. The format is ADME, organism-based.
Data set [8] in a line: Compound was evaluated for the biodistribution of tumor-imaging agent in B16 melanoma bearing mice brain upon intraveneous administration at 2.6 gmol/mice after 3 hour. The format is ADME, organism-based. The settings on record: mus sp., in vivo, iv.
Data set [9] can be described thus: Compound was evaluated for the biodistribution of tumor-imaging agent in B16 melanoma bearing mice kidney upon intraveneous administration at 2.6 gmol/mice after 24 hour. The format is ADME, organism-based. The settings on record: mus sp., in vivo, iv.
Data set [10] in a line: Compound was evaluated for the biodistribution of tumor-imaging agent in B16 melanoma bearing mice kidney upon intraveneous administration at 2.6 gmol/mice after 3 hour. The format is ADME, organism-based. The settings on record: mus sp., in vivo, iv.
Data set [11] can be described thus: Compound was evaluated for the biodistribution of tumor-imaging agent in B16 melanoma bearing mice uvea upon intraveneous administration at 2.6 gmol/mice after 3 hour. The format is ADME, organism-based, Uveal tract. The settings on record: mus sp., in vivo, iv.
A short description of data set [12]: Compound was evaluated for the biodistribution of tumor-imaging agent in B16 melanoma bearing mice upon intraveneous administration at 2.6 gmol/mice after 3 hour. The format is ADME, organism-based. The settings on record: mus sp., in vivo, iv.
Data set [13] can be described thus: Compound was evaluated for the biodistribution of tumor-imaging agent in B16 melanoma bearing mice uvea upon intraveneous administration at 2.6 gmol/mice after 24 hour. The format is ADME, organism-based, Uveal tract. The settings on record: mus sp., in vivo, iv.
The nature of data set [14]: Compound was evaluated for the biodistribution of tumor-imaging agent in B16 melanoma bearing mice liver upon intraveneous administration at 2.6 gmol/mice after 1 hour. The format is ADME, organism-based. The conditions noted are these: mus sp., in vivo, iv.
Data set [15] is described as follows: Compound was evaluated for the biodistribution of tumor-imaging agent in B16 melanoma bearing mice liver upon intraveneous administration at 2.6 gmol/mice after 24 hour. The settings on record: mus sp., in vivo, iv. The format is ADME, organism-based.
Data set [16] can be described thus: Compound was evaluated for the biodistribution of tumor-imaging agent in B16 melanoma bearing mice liver upon intraveneous administration at 2.6 gmol/mice after 3 hour. The format is ADME, organism-based. The conditions noted are these: mus sp., in vivo, iv.
The nature of data set [17]: Compound was evaluated for the biodistribution of tumor-imaging agent in B16 melanoma bearing mice lungs upon intraveneous administration at 2.6 gmol/mice after 1 hour. The settings on record: mus sp., in vivo, iv. The format is ADME, organism-based.
Data set [18] can be described thus: Compound was evaluated for the biodistribution of tumor-imaging agent in B16 melanoma bearing mice lungs upon intraveneous administration at 2.6 gmol/mice after 3 hour. The format is ADME, organism-based. The settings on record: mus sp., in vivo, iv.
Data set [19] can be described thus: Compound was evaluated for the biodistribution of tumor-imaging agent in B16 melanoma bearing mice muscle upon intraveneous administration at 2.6 gmol/mice after 1 hour. The conditions noted are these: mus sp., in vivo, iv. The format is ADME, organism-based, Muscle tissue.
Data set [20] in a line: Compound was evaluated for the biodistribution of tumor-imaging agent in B16 melanoma bearing mice muscle upon intraveneous administration at 2.6 gmol/mice after 24 hour. The format is ADME, organism-based, Muscle tissue. The settings on record: mus sp., in vivo, iv.
A short description of data set [21]: Partition coefficient (logP). The format is physicochemical. The conditions noted are these: octanol/water.
A short description of data set [22]: Acute toxicity of compound in OF1 mice. The format is organism-based. The settings on record: OF1, mouse, in vivo.
The nature of data set [23]: Compound was evaluated for the biodistribution of tumor-imaging agent in B16 melanoma bearing mice spleen upon intraveneous administration at 2.6 gmol/mice after 3 hour. The format is ADME, organism-based. The conditions noted are these: mus sp., in vivo, iv.
A short description of data set [24]: Compound was evaluated for the biodistribution of tumor-imaging agent in B16 melanoma bearing mice kidney upon intraveneous administration at 2.6 gmol/mice after 1 hour. The settings on record: mus sp., in vivo, iv. The format is ADME, organism-based.

SMILES strings stand for the structures.

In the case of `CCN(CC)CCNC(=O)c1ccc(B2OCCCO2)cc1`, the Injected dose/g in data set [1] is listed as 1.96%; in [2], 2.61%; in [3] it was 3.26%; in data set [4], 0.52%; in data set [5], 2.53%; in data set [6] it was 0.97%. For the same compound, the Injected dose/g in data set [7] was determined as 0.19%; in [8] it was 0.18%; in [9], 0.13%; in data set [10], 3.38%; in [11], 2.78%; in data set [12] it was 2.89%. The Injected dose/g in data set [13] is on record as 0.84%; in data set [14], 5.11%; in data set [15] it was 0.22%; in [16], 4.76%; in data set [17], 1.91%; in data set [18] it was 1.24%. Moreover, the Injected dose/g in [19] came to 2.95%; in data set [20], 0.04%; in [23] it was 1.53%; in [24], 4.88%. In addition, the lipophilicity (logP) (usually the decadic logarithm of the partition coefficient of the neutral form, usually between octanol and water) in data set [21] is -1. In addition, the median lethal dose (LD50) (usually the dose expected to kill half of the subjects tested) in data set [22] is 1860 µmol/kg.
